Like-named read-outs stand apart in the source and are kept apart here.
Columns and labels:
Human mTOR (FLAG-TOR) = target: T1, Human mTOR (FLAG-TOR) (Homo sapiens, UniProt P42345); assay: Human mTOR kinase assay with purified enzyme, DELFIA format; format: biochemical
T1 construct: FLAG
Outline: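 Purified FLAG-mTOR in HEPES pH 7.4 buffer with 10 mM MnCl2 was preincubated with inhibitor and reacted 2 h at room temperature with His6-S6K substrate, then stopped with EDTA/EGTA. Phospho-T389 S6K detected by DELFIA with Eu-labelled antibody (40 ng/mL) after plate capture; inhibition computed from signal.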

PI3K [1] = target: T2, PI3K (Homo sapiens, UniProt P42336); assay: Fluorescence polarization assay for PI3K; format: biochemical; conditions: read-out: PI3 Kinase α IC50
T2 construct: PI3 Kinase α IC50; other: PI3 Kinase α; other: PI3 Kinase α isoform, fluorescence polarization
T2 sequence (P42336 whole entry, canonical isoform): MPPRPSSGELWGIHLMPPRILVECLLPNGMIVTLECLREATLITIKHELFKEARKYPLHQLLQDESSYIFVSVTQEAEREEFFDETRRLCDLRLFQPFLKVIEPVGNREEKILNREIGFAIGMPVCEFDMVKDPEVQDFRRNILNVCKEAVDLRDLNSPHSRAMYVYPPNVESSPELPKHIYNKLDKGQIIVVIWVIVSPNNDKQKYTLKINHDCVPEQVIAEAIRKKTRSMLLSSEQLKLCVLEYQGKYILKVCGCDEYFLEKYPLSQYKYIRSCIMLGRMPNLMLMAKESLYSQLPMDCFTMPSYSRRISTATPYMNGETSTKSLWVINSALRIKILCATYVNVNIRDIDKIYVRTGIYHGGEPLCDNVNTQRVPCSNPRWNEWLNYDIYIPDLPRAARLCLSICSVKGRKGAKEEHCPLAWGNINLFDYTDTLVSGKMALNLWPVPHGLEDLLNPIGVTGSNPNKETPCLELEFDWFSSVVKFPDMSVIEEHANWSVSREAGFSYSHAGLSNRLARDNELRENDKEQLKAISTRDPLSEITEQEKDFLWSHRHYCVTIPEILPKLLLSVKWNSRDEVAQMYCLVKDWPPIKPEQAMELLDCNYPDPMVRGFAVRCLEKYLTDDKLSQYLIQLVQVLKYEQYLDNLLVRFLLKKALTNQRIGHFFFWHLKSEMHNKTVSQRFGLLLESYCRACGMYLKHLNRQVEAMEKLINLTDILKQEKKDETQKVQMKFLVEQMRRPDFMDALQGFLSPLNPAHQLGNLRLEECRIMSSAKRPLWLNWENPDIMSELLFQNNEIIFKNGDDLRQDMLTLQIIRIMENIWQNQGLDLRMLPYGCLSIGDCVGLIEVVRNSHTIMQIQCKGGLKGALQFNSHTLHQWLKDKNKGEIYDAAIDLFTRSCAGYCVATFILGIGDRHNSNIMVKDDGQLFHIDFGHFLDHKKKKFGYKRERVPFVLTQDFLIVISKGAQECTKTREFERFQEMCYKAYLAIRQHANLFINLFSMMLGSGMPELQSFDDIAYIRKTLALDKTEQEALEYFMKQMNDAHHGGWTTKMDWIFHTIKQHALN
Outline: (§1)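 PI3K was preincubated with compound (final DMSO 1%), and the reaction was started with PIP2/ATP substrate and run 30–60 min. It was stopped with a detector mix giving 10 nM red probe and 70 nM GST-GRP.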

PI3K [2] = target: T3, PI3K (Homo sapiens, UniProt P48736); assay: Fluorescence polarization assay for PI3K; format: biochemical; conditions: read-out: PI3 Kinase γ IC50
T3 construct: PI3 Kinase γ IC50; other: PI3 Kinase γ; other: PI3 Kinase γ isoform, fluorescence polarization
T3 sequence (P48736 whole entry, canonical isoform): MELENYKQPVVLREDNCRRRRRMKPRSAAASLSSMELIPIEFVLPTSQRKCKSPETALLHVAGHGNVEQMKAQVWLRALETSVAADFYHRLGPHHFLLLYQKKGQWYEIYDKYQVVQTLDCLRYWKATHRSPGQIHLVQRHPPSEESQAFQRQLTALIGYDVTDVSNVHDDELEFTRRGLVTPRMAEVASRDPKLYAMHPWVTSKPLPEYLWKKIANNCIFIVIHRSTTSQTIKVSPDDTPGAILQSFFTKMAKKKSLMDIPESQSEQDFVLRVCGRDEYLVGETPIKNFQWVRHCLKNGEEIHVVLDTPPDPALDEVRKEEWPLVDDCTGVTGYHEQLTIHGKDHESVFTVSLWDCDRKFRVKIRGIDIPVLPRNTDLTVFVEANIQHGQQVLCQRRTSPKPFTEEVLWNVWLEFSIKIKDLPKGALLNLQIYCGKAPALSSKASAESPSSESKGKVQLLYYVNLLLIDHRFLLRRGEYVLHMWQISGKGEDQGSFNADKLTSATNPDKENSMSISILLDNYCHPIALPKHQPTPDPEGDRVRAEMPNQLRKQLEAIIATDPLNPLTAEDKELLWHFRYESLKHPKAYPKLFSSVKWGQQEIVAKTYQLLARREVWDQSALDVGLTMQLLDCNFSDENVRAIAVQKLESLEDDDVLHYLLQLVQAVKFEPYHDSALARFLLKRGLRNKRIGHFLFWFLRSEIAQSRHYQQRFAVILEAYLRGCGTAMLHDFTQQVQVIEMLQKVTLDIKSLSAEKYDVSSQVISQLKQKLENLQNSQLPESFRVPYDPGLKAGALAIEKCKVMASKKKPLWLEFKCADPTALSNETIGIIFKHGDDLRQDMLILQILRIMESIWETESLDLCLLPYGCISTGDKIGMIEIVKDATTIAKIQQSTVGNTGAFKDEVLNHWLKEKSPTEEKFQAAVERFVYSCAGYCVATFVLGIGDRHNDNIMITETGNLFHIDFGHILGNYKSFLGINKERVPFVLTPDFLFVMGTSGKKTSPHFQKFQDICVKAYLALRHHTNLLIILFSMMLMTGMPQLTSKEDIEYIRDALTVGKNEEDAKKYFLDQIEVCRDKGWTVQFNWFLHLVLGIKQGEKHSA
Outline: as §1

prostate line LNCap = assay: In vitro cell culture growth assay (MTS), LNCap; format: cell-based; conditions: Homo sapiens, LNCaP, 72 h, LNCap cells, three days after drug treatment
Description: Human tumor cell lines used include prostate lines LNCap and PC3MM2, breast lines MDA468, MCF7, renal line HTB44 (A498), colon line HCT116, and ovarian line OVCAR3. Cells were plated in 96-well culture plates. One day following plating, the inhibitors were added to cells. Three days after drug treatment, viable cell densities were determined by metabolic conversion (by viable cells) of the dye MTS, a well-established cell proliferation assay. The assays were performed using an assay kit purchased from Promega Corp. (Madison, Wis.) following the protocol supplied with the kit. The MTS assay results were read in a 96-well plate reader by measuring absorbance at 490 nm. The effect of each treatment was calculated as percent of control growth relative to the vehicle-treated cells grown in the same culture plate.

breast line MDA468 = assay: In vitro cell culture growth assay (MTS), MDA468; format: cell-based; conditions: Homo sapiens, 72 h, MDA468 cells, three days after drug treatment
Outline: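 Inhibitors were added one day after plating, and viable cells were measured 3 days later by MTS conversion (absorbance 490 nm).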

[3] = purified human mTOR enzyme, DELFIA format
[4] = PI3 Kinase α isoform, fluorescence polarization
[5] = PI3 Kinase γ isoform, fluorescence polarization

Compound | IC50 (Human mTOR (FLAG-TOR)) | IC50 (PI3K [1]; PI3 Kinase α) | IC50 (PI3K [2]; PI3 Kinase γ) | IC50 (prostate line LNCap) | IC50 (breast line MDA468) | IC50 (Human mTOR (FLAG-TOR); [3]) | IC50 (PI3K [1]; [4]) | IC50 (PI3K [2]; [5])
CN1CCN(c2ccc(NC(=O)Nc3ccc(-c4nc(N5CC6CCC(C5)O6)c5cnn(CCC#N)c5n4)cc3)cn2)CC1 [Example 222, 1-{4-[1-(2-cyanoethyl)-4-(8-oxa-3-azabicyclo[3.2.1]oct-3-yl)-1H-pyrazolo[3,4-d]pyrimidin-6-yl]phenyl}-3-[6-(4-methylpiperazin-1-yl)pyridin-3-yl]urea] | 0.405 nM | 143 nM | 2610 nM | 1 nM | 8 nM |  |  | 
O=C(NCCO)Nc1ccc(-c2nc(N3CC4CCC(C3)O4)c3cnn(C4CCC5(CC4)OCCO5)c3n2)cc1 [Example 125, 1-{4-[1-(1,4-dioxaspiro[4.5]dec-8-yl)-4-(8-oxa-3-azabicyclo[3.2.1]oct-3-yl)-1H-pyrazolo[3,4-d]pyrimidin-6-yl]phenyl}-3-(2-hydroxyethyl)urea] | 0.235 nM | 1350 nM | > 10000 nM | 8 nM | 40 nM |  |  | 
CCn1ncc2c(N3CC4CCC(C3)O4)nc(-c3ccc(NC(=O)N[C@H]4CC[C@H](N)CC4)cc3)nc21 (relative stereo) [Example 230, 1-(trans-4-aminocyclohexyl)-3-{4-[1-ethyl-4-(8-oxa-3-azabicyclo[3.2.1]oct-3-yl)-1H-pyrazolo[3,4-d]pyrimidin-6-yl]phenyl}urea] | 15.5 nM | 2890 nM | > 10000 nM | 1300 nM | 1500 nM |  |  | 
CCNC(=O)Nc1ccc(-c2nc(N3CC4CCC(C3)O4)c3cnn(C4CCN(C(=O)OCC)CC4)c3n2)cc1 [Example 31, ethyl 4-[6-{4-[(ethylcarbamoyl)amino]phenyl}-4-(8-oxa-3-azabicyclo[3.2.1]oct-3-yl)-1H-pyrazolo[3,4-d]pyrimidin-1-yl]piperidine-1-carboxylate] | 0.36 nM | 1890 nM | 11000 nM | 0.8 nM | 70 nM |  |  | 
O=C(Nc1ccc(-c2nc(N3CC4CCC(C3)O4)c3cnn(C4CCCCO4)c3n2)cc1)Nc1cccnc1 (centres unmarked) [Example 90, 1-{4-[4-(8-oxa-3-azabicyclo[3.2.1]oct-3-yl)-1-(tetrahydro-2H-pyran-2-yl)-1H-pyrazolo[3,4-d]pyrimidin-6-yl]phenyl}-3-pyridin-3-ylurea] | 0.39 nM | 412 nM | 4330 nM | 12 nM | 60 nM |  |  | 
CCn1ncc2c(N3CC4CCC(C3)O4)nc(-c3ccc(NC(=O)Nc4ccc(N5CCN(C)CC5)nc4)cc3)nc21 [Example 185, 1-{4-[1-ethyl-4-(8-oxa-3-azabicyclo[3.2.1]oct-3-yl)-1H-pyrazolo[3,4-d]pyrimidin-6-yl]phenyl}-3-[6-(4-methylpiperazin-1-yl)pyridin-3-yl]urea] | 0.735 nM | 196 nM | 2270 nM | < 1 nM | 1 nM |  |  | 
COC(=O)Nc1ccc(-c2nc(N3CC4CCC(C3)O4)c3cnn(C(C)C)c3n2)cc1 [Example 138, methyl {4-[1-isopropyl-4-(8-oxa-3-azabicyclo[3.2.1]oct-3-yl)-1H-pyrazolo[3,4-d]pyrimidin-6-yl]phenyl}carbamate] | 1.27 nM | 1040 nM | 3780 nM | 80 nM | 510 nM |  |  | 
O=C(Nc1ccc(-c2nc(N3C4CCC3COC4)c3cnn(CC(F)(F)F)c3n2)cc1)NC1CC1 [Example 271, 1-cyclopropyl-3-{4-[4-(3-oxa-8-azabicyclo[3.2.1]oct-8-yl)-1-(2,2,2-trifluoroethyl)-1H-pyrazolo[3,4-d]pyrimidin-6-yl]phenyl}urea] | 0.355 nM | 3680 nM | 9000 nM | 7 nM | 80 nM |  |  | 
COC(=O)N1CCC(n2ncc3c(N4CC5CCC(C4)O5)nc(-c4ccc(NC(=O)NCCN)cc4)nc32)CC1 [Example 168, methyl 4-[6-(4-{[(2-aminoethyl)carbamoyl]amino}phenyl)-4-(8-oxa-3-azabicyclo[3.2.1]oct-3-yl)-1H-pyrazolo[3,4-d]pyrimidin-1-yl]piperidine-1-carboxylate] | 3.15 nM | 218 nM | 3220 nM | 1500 nM | 9000 nM |  |  | 
CN1CCN(Cc2cc3nc(-c4ccc(NC(=O)NC5CC5)cc4)nc(N4CC5CCC(C4)O5)c3s2)CC1 [Example 424, 1-cyclopropyl-3-(4-{6-[(4-methylpiperazin-1-yl)methyl]-4-(8-oxa-3-azabicyclo[3.2.1]oct-3-yl)thieno[3,2-d]pyrimidin-2-yl}phenyl)urea] |  |  |  | 400 nM | 2000 nM | 15.5 nM | 874 nM | 3670 nM
COCC(COC)n1ncc2c(N3CC4CCC(C3)O4)nc(-c3ccc(NC(=O)Nc4ccccc4)cc3)nc21 [Example 324, 1-(4-{1-[2-methoxy-1-(methoxymethyl)ethyl]-4-(8-oxa-3-azabicyclo[3.2.1]oct-3-yl)-1H-pyrazolo[3,4-d]pyrimidin-6-yl}phenyl)-3-phenylurea] |  |  |  | 8 nM | 58 nM | 3.4 nM | 382 nM | 5200 nM
O=C(Nc1ccncc1)Nc1ccc(-c2nc(N3CC4CCC(C3)O4)c3cnn(Cc4ccccc4)c3n2)cc1 [Example 79, 1-{4-[1-benzyl-4-(8-oxa-3-azabicyclo[3.2.1]oct-3-yl)-1H-pyrazolo[3,4-d]pyrimidin-6-yl]phenyl}-3-pyridin-4-ylurea] | 1.9 nM | 1980 nM | > 10000 nM | 20 nM | 150 nM |  |  | 
O=C(Nc1ccc(-c2nc(N3CC4CCC(C3)O4)c3cnn(CC(F)(F)F)c3n2)cc1)Nc1ccc(N2CCOCC2)nc1 [Example 252, 1-(6-morpholin-4-ylpyridin-3-yl)-3-{4-[4-(8-oxa-3-azabicyclo[3.2.1]oct-3-yl)-1-(2,2,2-trifluoroethyl)-1H-pyrazolo[3,4-d]pyrimidin-6-yl]phenyl}urea] | 0.465 nM | 9500 nM | > 10000 nM | 1 nM | 8 nM |  |  | 
CCn1ncc2c(N3CC4CCC(C3)O4)nc(-c3ccc(NC(=O)NCCNC)cc3)nc21 [Example 174, 1-{4-[1-ethyl-4-(8-oxa-3-azabicyclo[3.2.1]oct-3-yl)-1H-pyrazolo[3,4-d]pyrimidin-6-yl]phenyl}-3-[2-(methylamino)ethyl]urea] | 4.7 nM | 232 nM | 4980 nM | 190 nM | 700 nM |  |  | 
O=C(Nc1ccc(-c2nc(N3CC4CCC(C3)O4)c3cnn(C4CCN(Cc5cccnc5)CC4)c3n2)cc1)OCCO [Example 210, 2-hydroxyethyl (4-{4-(8-oxa-3-azabicyclo[3.2.1]oct-3-yl)-1-[1-(pyridin-3-ylmethyl)piperidin-4-yl]-1H-pyrazolo[3,4-d]pyrimidin-6-yl}phenyl)carbamate] | 0.93 nM | 1750 nM | > 10000 nM | 4 nM | 110 nM |  |  | 
CCOC(=O)Nc1ccc(-c2nc(N3CC4CCC(C3)O4)c3cnn(C4CCN(C(=O)OC)CC4)c3n2)cc1 [Example 111, methyl 4-[6-{4-[(ethoxycarbonyl)amino]phenyl}-4-(8-oxa-3-azabicyclo[3.2.1]oct-3-yl)-1H-pyrazolo[3,4-d]pyrimidin-1-yl]piperidine-1-carboxylate] | 8.5 nM | 3340 nM | 12000 nM | 700 nM | 6000 nM |  |  | 
Cn1ncc2c(N3CC4CCC(C3)O4)nc(-c3ccc(NC(=O)Nc4ccc(N5CCOCC5)cc4)cc3)nc21 [Example 238, 1-{4-[1-methyl-4-(8-oxa-3-azabicyclo[3.2.1]oct-3-yl)-1H-pyrazolo[3,4-d]pyrimidin-6-yl]phenyl}-3-(4-morpholin-4-ylphenyl)urea] | 0.245 nM | 371 nM | > 10000 nM | 1 nM | 8 nM |  |  | 
CCNC(=O)Nc1ccc(-c2nc(N3CC4CCC(C3)O4)c3cnn(CC)c3n2)cc1 [Example 41, 1-ethyl-3-{4-[1-ethyl-4-(8-oxa-3-azabicyclo[3.2.1]oct-3-yl)-1H-pyrazolo[3,4-d]pyrimidin-6-yl]phenyl}urea] | 0.47 nM | 1250 nM | 12000 nM | 16 nM | 80 nM |  |  | 
Cn1ncc2c(N3CC4CCC(C3)O4)nc(-c3ccc(NC(=O)Nc4ccc(N)cc4)cc3)nc21 [Example 234, 1-(4-aminophenyl)-3-{4-[1-methyl-4-(8-oxa-3-azabicyclo[3.2.1]oct-3-yl)-1H-pyrazolo[3,4-d]pyrimidin-6-yl]phenyl}urea] | 0.355 nM | 162 nM | 1100 nM | 2 nM | 11 nM |  |  | 

Reference: US8129371B2, “Thienopyrimidine and pyrazolopyrimidine compounds and their use as mTOR kinase and PI3 kinase inhibitors” (Wyeth LLC, priority 2007, dated 2012)
